Reference: US20170209579A1, “NON-INVASIVE RADIOFREQUENCY FIELD TREATMENT FOR CANCER THERAPY” (Baylor College of Medicine, priority 2014, published 2017)

Columns and labels:
[1] = test system: orthotopic pancreatic tumors (KPC pancreatic adenocarcinoma cells); test: Gemcitabine uptake into orthotopic KPC pancreatic tumors with and without RF (LC-MS); format: in vivo, mouse; conditions: 70 mg/Kg systemic injection, sacrificed 5 hours later, RF until 41° C.
From the text: FIGS. 11A-11E illustrate an example of an embodiment of the use RF energy to enhance the uptake of chemotherapy drugs into tumors compared to using chemotherapy drugs alone. (11A) Female Nude mice (4-6 weeks old) were given direct injections of KPC pancreatic adenocarcinoma cells (1×10^6) into the pancreas. After 1-2 weeks (enough time for a orthotopic pancreatic tumor to form) the mice were subjected to RF exposure under a ramped power treatment protocol as shown in the table. (11B) Graph of a typical RF power and resulting temperature versus time plot for a single mouse being exposed to RF energy. The surface temperature of the mouse in close proximity to the pancreas was recorded using an IR camera. The RF exposure was turned off once the temperature reached 41° C. […] Quantification of Gemcitabine was analyzed using Liquid Chromatography Mass Spectroscopy (LC-MS). (11E) Quantification of the levels of Gemcitabine in the orthotopic pancreatic tumors of mice with and without RF exposure. […]
FIGS. 11A-11E illustrate an example of an embodiment of the use RF energy to enhance the uptake of chemotherapy drugs into tumors compared to using chemotherapy drugs alone. […] The surface temperature of the mouse in close proximity to the pancreas was recorded using an IR camera. […] Quantification of Gemcitabine was analyzed using Liquid Chromatography Mass Spectroscopy (LC-MS). […]

[2] = test system: γ-H2AX in Hep3B xenografts; test: γ-H2AX fluorescence immunohistochemistry in Hep3B xenografts; format: in vivo, mouse
Procedure: (30A) Sites of DNA damage were evaluated using fluorescence immunohistochemistry for γ-H2AX. Also note the increased nuclear fragmentation in the DAPI channel for combination therapy groups.
Tumor tissues harvested at the end of the experiment were fixed in 10% buffered formalin (pH 7.0) for 24 hours and subsequently stored in 70% ethanol (v/v) before embedding them in paraffin. For immunohistochemistry, 5-micron sections were placed on a glass slide and tissue sections were de-paraffinized and rehydrated. Antigen retrieval was performed in citrate buffer at pH 6.0. The slides were placed in Tris-buffer (pH 8.0) before further processing.
For fluorescence immunohistochemistry, a protocol similar to that used for immunocytochemistry (described above) was used with some modifications described here. Tris-buffer was removed and tumor section was encircled using a pap pen (Electron microscopy sciences, Hatfield, Pa.). For blocking, 5% (w/v) BSA and 3% (v/v) NGS was used instead of 3% BSA and 1% NGS, respectively. Imaging was performed as for immunocytochemistry.
Development of mouse models and details of RF exposure and thermography are discussed in FIGS. 25 and 26. Mice bearing Hep3B orthotopic tumors were randomized to one of five groups: untreated, RF exposure alone, gemcitabine alone, gemcitabine followed 24 hours later by RF exposure, or RF exposure immediately followed by gemcitabine. The treatments were administered twice a week for three weeks for a total of six treatments. The gemcitabine dose administered was […] or 150 mg/kg/week. This is approximately half the dose used in humans (1000 mg/m2/week dose in a 1.7 m human=˜300 mg/kg/week dose in a mouse). Twenty-four hours after the last treatment, mice were killed and tumors were harvested, weighed, and fixed in formalin for later analysis (FIG. 19A). […]

Nc1ccn([C@@H]2O[C@H](CO)[C@@H](O)C2(F)F)c(=O)n1 [gemcitabine, 2′,2′-difluoro 2′-deoxycytidine]
Gemcitabine present in tumors, RF-treated mice versus control group [1]: approximately 4 × | Mean γ-H2AX positive pixels/HPF [±SD] ([2]; RF then gemcitabine): 45430±18980 pixels/HPF | Mean γ-H2AX positive pixels/HPF [±SD] ([2]; gemcitabine alone): 27258±8022 pixels/HPF | Mean γ-H2AX positive pixels/HPF [±SD] ([2]; gemcitabine then RF): 46968±10284 pixels/HPF
